Reference: patent EP0093484A2, “Antibacterial monic acid derivatives” (BEECHAM GROUP PLC, priority 1982, dated 1983)
In brackets after ≈: the same amount, converted by molar mass. Where two headings read alike, the source gives them in different places.

Key:
M. suipneumoniae JF 435 = assay: Anti-mycoplasmal activity, MIC in Friis broth agarose; assay type: cell-based; conditions: Friis broth solidified with 0.9% agarose, 6 days incubation at 37°C
M. suipneumoniae HK(2) = assay: as above; assay type: cell-based; conditions: Friis broth solidified with 0.9% agarose, 6 days incubation at 37°C
M. suipneumoniae Str. 11 = assay: as above; assay type: cell-based; conditions: Friis broth solidified with 0.9% agarose, 6 days incubation at 37°C
M. suipneumoniae MS16 = assay: as above; assay type: cell-based; conditions: Friis broth solidified with 0.9% agarose, 6 days incubation at 37°C
M. suipneumoniae UCD 1 = assay: as above; assay type: cell-based; conditions: Friis broth solidified with 0.9% agarose, 6 days incubation at 37°C
M. suipneumoniae TAM 6N = assay: as above; assay type: cell-based; conditions: Friis broth solidified with 0.9% agarose, 6 days incubation at 37°C
M. hyorhinis ATCC 23234 = assay: as above; assay type: cell-based; conditions: Friis broth solidified with 0.9% agarose, 6 days incubation at 37°C
[1] = system: M. hyosynoviae ATCC 25591; assay: as above; assay type: cell-based; conditions: Friis broth solidified with 0.9% agarose, 6 days incubation at 37°C
M. bovis NCTC 10131 = assay: microbe, parasite or virus in culture; assay type: cell-based
M. dispar NCTC 10125 = assay: Anti-mycoplasmal activity, MIC in Friis broth agarose; assay type: cell-based; conditions: Friis broth solidified with 0.9% agarose, 6 days incubation at 37°C
M. gallisepticum S6 = assay: as above; assay type: cell-based; conditions: Friis broth solidified with 0.9% agarose, 6 days incubation at 37°C
M. pneumoniae ATCC 15492 = assay: as above; assay type: cell-based; conditions: Friis broth solidified with 0.9% agarose, 6 days incubation at 37°C
E. coli ESS = assay: Human bacteria, MIC by serial dilution in nutrient agar; assay type: cell-based; conditions: nutrient agar with 5% chocolated horse blood, 18 hours at 37°C
P. mirabilis 889 = assay: as above; assay type: cell-based; conditions: nutrient agar with 5% chocolated horse blood, 18 hours at 37°C
K. aerogenes A = assay: as above; assay type: cell-based; conditions: nutrient agar with 5% chocolated horse blood, 18 hours at 37°C
Ps. aeruginosa 10662 = assay: as above; assay type: cell-based; conditions: nutrient agar with 5% chocolated horse blood, 18 hours at 37°C
[2] = system: Pasteurella multocida 1633; assay: as above; assay type: cell-based; conditions: nutrient agar with 5% chocolated horse blood, 18 hours at 37°C
[3] = system: Haemophilus influenzae Wy21; assay: as above; assay type: cell-based; conditions: nutrient agar with 5% chocolated horse blood, 18 hours at 37°C
[4] = system: Neisseria catarrhalis 1502; assay: as above; assay type: cell-based; conditions: nutrient agar with 5% chocolated horse blood, 18 hours at 37°C
Bacillus subtilis 6633 = assay: as above; assay type: cell-based; conditions: nutrient agar with 5% chocolated horse blood, 18 hours at 37°C
[5] = system: Corynebacterium xerosis 9755; assay: as above; assay type: cell-based; conditions: nutrient agar with 5% chocolated horse blood, 18 hours at 37°C
Staph. aureus Russell = assay: as above; assay type: cell-based; conditions: nutrient agar with 5% chocolated horse blood, 18 hours at 37°C
Strep. faecalis I = assay: as above; assay type: cell-based; conditions: nutrient agar with 5% chocolated horse blood, 18 hours at 37°C
[6] = system: Strep. pyogenes R80/421-A; assay: as above; assay type: cell-based; conditions: nutrient agar with 5% chocolated horse blood, 18 hours at 37°C
Strep. agalactiae 2788-B = assay: as above; assay type: cell-based; conditions: nutrient agar with 5% chocolated horse blood, 18 hours at 37°C
Strep. spp. 64/848-C = assay: as above; assay type: cell-based; conditions: nutrient agar with 5% chocolated horse blood, 18 hours at 37°C
Strep. pneumoniae CN33 = assay: as above; assay type: cell-based; conditions: nutrient agar with 5% chocolated horse blood, 18 hours at 37°C
E. coli NCTC 10418 = assay: Veterinary bacteria, MIC by two fold serial dilution in agar
Method: (§1) The activity of the compounds of the Examples against various organisms important in veterinary infections was determined using two fold serial dilutions in Diagnostic Sensitivity Test Agar inoculated with 10^4 organisms.

E. coli E1 = assay: as above
Method: as §1

S. dublin S7 = assay: as above
Method: as §1

Bord. bronchiseptica B08 = assay: as above
Method: as §1

Past. multocida PA1 = assay: as above
Method: as §1

[7] = system: Erysipelothrix rhusiopathiae NCTC 8163; assay: as above
Method: as §1

[8] = system: Corynebacterium pyogenes CY1; assay: as above
Method: as §1

[9] = system: Staph. aureus B4 (pen. resistant); assay: as above
Method: as §1

[10] = system: Staph. aureus 152 (pen. sens.); assay: as above
Method: as §1

Strep. uberis SPU1 = assay: as above
Method: as §1

Strep. dysgalactiae SPD1 = assay: as above
Method: as §1

[11] = system: Haemophilus influenzae Q1; assay: Human bacteria, MIC by serial dilution in nutrient agar; assay type: cell-based; conditions: nutrient agar with 5% chocolated horse blood, 18 hours at 37°C, read-out: MIC
Sarcina lutea 8340 = assay: as above; assay type: cell-based; conditions: Micrococcus luteus, nutrient agar with 5% chocolated horse blood, 18 hours at 37°C, read-out: MIC
Past. multocida PA2 = assay: Veterinary bacteria, MIC by two fold serial dilution in agar; conditions: Pasteurella multocida, PA2, 18 h
Method: as §1

[12] = Mesomycoplasma hyopneumoniae, 144 h, read-out: MIC

## 1-(p-Methylsulfinylphenyl)ethyl monate A [Example 8]
M. suipneumoniae JF 435
  MIC: 2.5 µg/mL
M. suipneumoniae HK(2)
  MIC: 2.5 µg/mL
M. suipneumoniae Str. 11
  MIC: 1.0 µg/mL
M. suipneumoniae MS16
  MIC: 1.0 µg/mL
M. suipneumoniae UCD 1
  MIC: 2.5 µg/mL
M. suipneumoniae TAM 6N
  MIC: 2.5 µg/mL
M. hyorhinis ATCC 23234
  MIC: 1.0 µg/mL
[1]
  MIC: 0.5 µg/mL
M. bovis NCTC 10131; M. bovis NCTC 10131, Friis broth solidified with 0.9% agarose, 6 days incubation at 37°C
  MIC: .025 µg/mL
M. dispar NCTC 10125
  MIC: 0.5 µg/mL
M. gallisepticum S6
  MIC: 10 µg/mL
M. pneumoniae ATCC 15492
  MIC: 10 µg/mL
E. coli ESS
  MIC: 4.0 µg/mL
P. mirabilis 889
  MIC: >128 µg/mL
K. aerogenes A
  MIC: >128 µg/mL
Ps. aeruginosa 10662
  MIC: >128 µg/mL
[2]
  MIC: 8.0 µg/mL
[3]
  MIC: 1.0 µg/mL
[4]
  MIC: 4.0 µg/mL
Bacillus subtilis 6633
  MIC: 4.0 µg/mL
[5]
  MIC: >128 µg/mL
Staph. aureus Russell
  MIC: 32 µg/mL
Strep. faecalis I
  MIC: >128 µg/mL
[6]
  MIC: 2.0 µg/mL
Strep. agalactiae 2788-B
  MIC: 8.0 µg/mL
Strep. spp. 64/848-C
  MIC: 4.0 µg/mL
Strep. pneumoniae CN33
  MIC: 8.0 µg/mL
E. coli NCTC 10418; E. coli NCTC 10418 (veterinary panel), Diagnostic Sensitivity Test Agar, 18 hours at 37°C
  MIC: >80 µg/mL
E. coli E1; E. coli E1, Diagnostic Sensitivity Test Agar, 18 hours at 37°C
  MIC: >80 µg/mL
S. dublin S7; S. dublin S7, Diagnostic Sensitivity Test Agar, 18 hours at 37°C
  MIC: >80 µg/mL
Bord. bronchiseptica B08; Bord. bronchiseptica B08, Diagnostic Sensitivity Test Agar, 18 hours at 37°C
  MIC: >80 µg/mL
Past. multocida PA1; Past. multocida PA1, Diagnostic Sensitivity Test Agar, 18 hours at 37°C
  MIC: 10 µg/mL
[7]; Erysipelothrix rhusiopathiae NCTC 8163, Diagnostic Sensitivity Test Agar, 18 hours at 37°C
  MIC: >80 µg/mL
[8]; Corynebacterium pyogenes CY1, Diagnostic Sensitivity Test Agar, 18 hours at 37°C
  MIC: >80 µg/mL
[9]; Staph. aureus B4 (pen. resistant), Diagnostic Sensitivity Test Agar, 18 hours at 37°C
  MIC: 20 µg/mL
[10]; Staph. aureus 152 (pen. sens.), Diagnostic Sensitivity Test Agar, 18 hours at 37°C
  MIC: 5.0 µg/mL
Strep. uberis SPU1; Strep. uberis SPU1, Diagnostic Sensitivity Test Agar, 18 hours at 37°C
  MIC: .625 µg/mL
Strep. dysgalactiae SPD1; Strep. dysgalactiae SPD1, Diagnostic Sensitivity Test Agar, 18 hours at 37°C
  MIC: 2.5 µg/mL

## CC(=CC(=O)OCc1cccc([S+](C)[O-])c1)CC1OCC(CC2OC2C(C)C(C)O)C(O)C1O (centres unmarked) [Example 6, m-Methylsulfinylbenzyl monate A]
M. suipneumoniae JF 435; Mesomycoplasma hyopneumoniae, JF435, 144 h, read-out: MIC
  MIC: 10 µg/mL (≈ 20.1 µM)
M. suipneumoniae HK(2); [12]
  MIC: 10 µg/mL (≈ 20.1 µM)
M. suipneumoniae Str. 11; [12]
  MIC: 5 µg/mL (≈ 10.1 µM)
M. suipneumoniae MS16; [12]
  MIC: 5 µg/mL (≈ 10.1 µM)
M. suipneumoniae UCD 1; Mesomycoplasma hyopneumoniae, UCD1, 144 h, read-out: MIC
  MIC: 10 µg/mL (≈ 20.1 µM)
M. suipneumoniae TAM 6N; Mesomycoplasma hyopneumoniae, TAM6N, 144 h, read-out: MIC
  MIC: 10 µg/mL (≈ 20.1 µM)
M. hyorhinis ATCC 23234; Mesomycoplasma hyorhinis, ATCC23234, 144 h, read-out: MIC
  MIC: 5 µg/mL (≈ 10.1 µM)
[1]; 144 h, read-out: MIC
  MIC: 5 µg/mL (≈ 10.1 µM)
M. bovis NCTC 10131; NCTC10131, 144 h
  MIC: 0.25 µg/mL (≈ 0.503 µM)
M. dispar NCTC 10125; 144 h, read-out: MIC
  MIC: 2.5 µg/mL (≈ 5.03 µM)
M. gallisepticum S6; Mycoplasmoides gallisepticum, 144 h, read-out: MIC
  MIC: > 10 µg/mL
M. pneumoniae ATCC 15492; Mycoplasmoides pneumoniae, ATCC15492, 144 h, read-out: MIC
  MIC: 5 µg/mL (≈ 10.1 µM)
E. coli ESS; Escherichia coli, read-out: MIC
  MIC: 25 µg/mL (≈ 50.3 µM)
P. mirabilis 889; Proteus mirabilis, read-out: MIC
  MIC: > 100 µg/mL
K. aerogenes A; Klebsiella aerogenes, read-out: MIC
  MIC: > 100 µg/mL
Ps. aeruginosa 10662; Pseudomonas aeruginosa, read-out: MIC
  MIC: > 100 µg/mL
[2]; read-out: MIC
  MIC: 25 µg/mL (≈ 50.3 µM)
[11]
  MIC: 2.5 µg/mL (≈ 5.03 µM)
[3]; read-out: MIC
  MIC: 2.5 µg/mL (≈ 5.03 µM)
[4]; read-out: MIC
  MIC: 12.5 µg/mL (≈ 25.2 µM)
Bacillus subtilis 6633; read-out: MIC
  MIC: 12.5 µg/mL (≈ 25.2 µM)
[5]; read-out: MIC
  MIC: > 100 µg/mL
Sarcina lutea 8340
  MIC: > 100 µg/mL
Staph. aureus Russell; Staphylococcus aureus, read-out: MIC
  MIC: 12.5 µg/mL (≈ 25.2 µM)
Strep. faecalis I; Enterococcus faecalis, read-out: MIC
  MIC: > 100 µg/mL
Strep. agalactiae 2788-B; Streptococcus agalactiae, read-out: MIC
  MIC: 25 µg/mL (≈ 50.3 µM)
Strep. pneumoniae CN33; Streptococcus pneumoniae, read-out: MIC
  MIC: 25 µg/mL (≈ 50.3 µM)
E. coli NCTC 10418; Escherichia coli, NCTC10418, 18 h
  MIC: > 80 µg/mL
E. coli E1; Escherichia coli, E1, 18 h
  MIC: > 80 µg/mL
S. dublin S7; Salmonella enterica, S7, 18 h
  MIC: > 80 µg/mL
Bord. bronchiseptica B08; Bordetella bronchiseptica, B08, 18 h
  MIC: > 80 µg/mL
Past. multocida PA1; Pasteurella multocida, PA1, 18 h
  MIC: 80 µg/mL (≈ 161 µM)
Past. multocida PA2
  MIC: 20 µg/mL (≈ 40.3 µM)
[7]; Erysipelothrix rhusiopathiae, NCTC8163, 18 h
  MIC: > 80 µg/mL
[8]; CY1, 18 h
  MIC: > 80 µg/mL
[9]; Staphylococcus aureus, 18 h
  MIC: 5 µg/mL (≈ 10.1 µM)
[10]; Staphylococcus aureus, 18 h
  MIC: 5 µg/mL (≈ 10.1 µM)
Strep. uberis SPU1; Streptococcus uberis, SPU1, 18 h
  MIC: 5 µg/mL (≈ 10.1 µM)
Strep. dysgalactiae SPD1; Streptococcus dysgalactiae, SPD1, 18 h
  MIC: 20 µg/mL (≈ 40.3 µM)
